Columns and labels:
[1] = tested on: T-Rex 293 cell line SC3 cells lacking increased expression of androgen receptor protein; assay: Cellular growth inhibition, T-Rex 293 SC3 cells without doxycycline (no increased androgen receptor expression), CellTiter-Glo; type: cell-based; settings: T-Rex 293 SC3 cells not exposed to doxycycline (no increased androgen receptor expression), 72 hours
Description: (§1) The following types of cells were prepared for this experiment: (i) a T-Rex 293 cell line having increased expression of androgen receptor protein due to exposure to doxycycline and (ii) a T-Rex 293 cell line lacking increased expression of androgen receptor protein. Ability of the test compounds to inhibit proliferation of the foregoing cell types was evaluated according to the procedures set forth below.
(§2) The doxycycline-inducible androgen receptor protein expressing cell line was established using the following protocol: T-Rex 293 cells were purchased from Invitrogen (Cat #R71007) and transfected using Lipofectamine 2000 with the wild-type androgen receptor protein sequence cloned into the pcDNA4/TO vector. Transfected cells were selected using 400 μg/mL Zeocin (Invitrogen Cat #R25001). Following selection, single clones were raised and maintained in Dulbecco's Modified Eagle Medium (DMEM) supplemented with 10% w/w Tetracycline-free fetal bovine serum (FBS) and 250 μg/mL Zeocin. Clones were analyzed for expression of androgen receptor protein in the presence and absence of 10 ng/mL doxycycline (Sigma Cat #D9891), and a single doxycycline-inducible clone (hereinafter “SC3”) was selected for use in downstream assays.
(§3) The SC3 cells were seeded on poly-D-lysine coated, black clear-bottom 384-well plates at 2500/well, in 25 μL Phenol Red Free Dulbecco's Modified Eagle Medium (DMEM) supplemented with 10% w/w charcoal-dextran treated fetal bovine serum (FBS) and 1% w/w pen-strep, with or without 10 ng/mL doxycycline. Pen-Strep is a commercially available mixture of penicillin G and streptomycin, which is used in mammalian cell culture media to prevent bacterial contamination. Phenol Red Free Dulbecco's Modified Eagle Medium (DMEM) supplemented with 10% w/w charcoal-dextran treated fetal bovine serum (FBS) and 1% w/w pen-strep, with or without 10 ng/mL doxycycline is herein referred to as Treatment Medium. Following seeding of cells in the plates, the plates were spun at 300×g for 30 seconds, then equilibrated to room temperature for 30 minutes, and then deposited in a humidified tissue culture incubator maintained at 37° C. with 5% CO2.
(§4) At 24 hours after seeding of the cells, dilutions of test compound were prepared in DMSO and dissolved in Treatment Medium, to achieve a final DMSO concentration of 0.5% w/w, thereby providing the Test Compound Solution. A 25 μL aliquot of the Test Compound Solution was added to cells in the well plates. An equal volume of a solution containing DMSO and Treatment Medium was used as a negative control. Following treatment of cells with Test Compound Solution or said equal volume of a solution containing DMSO and Treatment Medium, the plates were spun at 300×g for 30 seconds, and then left in an incubator for 72 hours.
(§5) At the end of the treatment duration, cell viability was quantified with CellTiter-Glo 2.0 reagent (Promega Cat #G9243). For this purpose, plates were equilibrated to room temperature for 30 minutes, and then 25 μL of CellTiter-Glo 2.0 reagent was added to cells in the plate wells. Plates were then agitated on a shaker for two minutes at 500 rpm and subsequently incubated at room temperature for 10 minutes. Following incubation, the plates were spun at 3000×g for 30 seconds, then sealed with an optical adhesive cover, and luminescence readings were measured with an EnVision Plate Reader.
(§6) Data was normalized using zero luminescence for baseline. A four-parameter non-linear regression curve fit was applied to dose-response data in GraphPad Prism data analysis software to determine the half-maximal growth inhibitory concentration (GI50) for each test compound.

VCaP cells = assay: Cellular growth inhibition assay for VCaP cells, CellTiter-Glo; type: cell-based, human; settings: 72 hours
Description: VCaP cells were purchased from American Type Cell Culture (ATCC Cat #CRL2876) and then seeded on poly-D-lysine coated, black clear-bottom 384-well plates at 5000/well in 25 μL Dulbecco's Modified Eagle Medium (DMEM) supplemented with 10% w/w Fetal bovine serum (FBS) and 1% w/w Pen-Strep. Pen-Strep is a commercially available mixture of penicillin G and streptomycin, which is used in mammalian cell culture media to prevent bacterial contamination. Dulbecco's Modified Eagle Medium (DMEM) supplemented with 10% w/w fetal bovine serum (FBS) and 1% w/w Pen-Strep is herein referred to as Treatment Medium. Following seeding of cells in the plates, the plates were spun at 300×g for 30 seconds, then equilibrated to room temperature for 30 minutes, and then deposited in a humidified tissue culture incubator maintained at 37° C. with 5% CO2.
as §4, §5, §6

[2] = tested on: T-Rex 293 cell line SC3 cells having increased expression of androgen receptor protein due to exposure to doxycycline; assay: Cellular growth inhibition, T-Rex 293 SC3 cells with doxycycline (increased androgen receptor expression), CellTiter-Glo; type: cell-based; settings: T-Rex 293 SC3 cells with 10 ng/mL doxycycline (increased androgen receptor expression), 72 hours, CellTiter-Glo 2.0
Description: as §1, §2, §3, §4, §5, §6

SMILES	GI50 (VCaP cells; Homo sapiens)	GI50 (VCaP cells)	GI50 [1]	GI50 [2]
CCS(=O)(=O)Nc1ccc(Oc2cccc(OCCC3CCN(c4ncc(C(=O)N[C@H]5C(C)(C)[C@H](Oc6ccc(C#N)c(Cl)c6)C5(C)C)cn4)CC3)c2)c(-c2cn(C)c(=O)c3[nH]ccc23)c1 [Compound I-26]	< 500 nM		< 500 nM	< 500 nM
CCS(=O)(=O)Nc1ccc(Oc2cccc(OCCCCN3CCN(CC4CCN(c5ncc(C(=O)N[C@H]6C(C)(C)[C@H](Oc7ccc(C#N)c(Cl)c7)C6(C)C)cn5)CC4)CC3)c2)c(-c2cn(C)c(=O)c3[nH]ccc23)c1 [Compound I-34]	< 500 nM		< 500 nM	< 500 nM
Cn1cc(-c2cc(NS(=O)(=O)C3CC3)ccc2Oc2cccc(OCCC3CCN(c4ncc(C(=O)N[C@H]5C(C)(C)[C@H](Oc6ccc(C#N)c(Cl)c6)C5(C)C)cn4)CC3)c2)c2cc[nH]c2c1=O [Compound I-130]		< 500 nM	> 3000 nM	< 500 nM
CCS(=O)(=O)Nc1ccc(Oc2cccc(OCCCC3CCN(c4ncc(C(=O)N[C@H]5C(C)(C)[C@H](Oc6ccc(C#N)c(Cl)c6)C5(C)C)cn4)CC3)c2F)c(-c2cn(C)c(=O)c3[nH]ccc23)c1 [Compound I-155]	< 500 nM		> 3000 nM	< 500 nM
CCC(=O)Nc1ccc(Oc2cccc(OCCOC3CCN(c4ncc(C(=O)N[C@H]5C(C)(C)[C@H](Oc6ccc(C#N)c(Cl)c6)C5(C)C)cn4)CC3)c2)c(-c2cn(C)c(=O)c3[nH]ccc23)c1 [Compound I-59, N-((1r, 3r)-3-(3-chloro-4-cyanophenoxy)-2,2,4,4-tetramethylcyclobutyl)-2-(4-(2-(3-(2-(6-methyl-7-oxo-6,7-dihydro-1H-pyrrolo[2,3-c]pyridin-4-yl)-4-propionamidophenoxy)phenoxy)ethoxy)piperidin-1-yl)pyrimidine-5-carboxamide]	> 3000 nM		> 3000 nM	< 500 nM
CCS(=O)(=O)Nc1ccc(-n2ccc(OCCOC3CCN(c4ncc(C(=O)NC5C(C)(C)C(Oc6ccc(C#N)c(Cl)c6)C5(C)C)cn4)CC3)cc2=O)c(-c2cn(C)c(=O)c3[nH]ccc23)c1 (stereo not drawn) [Compound I-112, N-[3-(3-chloro-4-cyano-phenoxy)-2,2,4,4-tetramethyl-cyclobutyl]-2-[4-[2-[[1-[4-(ethylsulfonylamino)-2-(6-methyl-7-oxo-1H-pyrrolo[2,3-c]pyridin-4-yl)phenyl]-2-oxo-4-pyridyl]oxy]ethoxy]-1-piperidyl]pyrimidine-5-carboxamide]	> 3000 nM		> 3000 nM	< 500 nM
CCS(=O)(=O)c1ccc(Oc2cccc(OCCOC3CCN(c4ccc(C(=O)N[C@H]5C(C)(C)[C@H](Oc6ccc(C#N)c(Cl)c6)C5(C)C)nn4)CC3)c2F)c(-c2cn(C)c(=O)c3[nH]ccc23)c1 [Compound I-169]	< 500 nM		< 500 nM	< 500 nM
CCS(=O)(=O)Nc1ccc(Oc2ccc(CCCOC3CCN(c4ncc(C(=O)N[C@H]5C(C)(C)[C@H](Oc6ccc(C#N)c(Cl)c6)C5(C)C)cn4)CC3)cc2)c(-c2cn(C)c(=O)c3[nH]ccc23)c1 [Compound I-152]		< 500 nM	< 500 nM	< 500 nM
CC(C)c1ccc(Oc2cccc(OCCC3CCN(c4ncc(C(=O)N[C@H]5C(C)(C)[C@H](Oc6ccc(C#N)c(Cl)c6)C5(C)C)cn4)CC3)c2F)c(-c2cn(C)c(=O)c3[nH]ccc23)c1 [Compound I-132]		> 3000 nM	> 3000 nM	> 3000 nM
CCS(=O)(=O)Nc1ccc(Oc2cccc(OCCCCOC3CCN(c4ncc(C(=O)N[C@H]5C(C)(C)[C@H](Oc6ccc(C#N)c(Cl)c6)C5(C)C)cn4)CC3)c2)c(-c2cn(C)c(=O)c3[nH]ccc23)c1 [Compound I-15]	< 500 nM		500 to 1500 nM	< 500 nM

Now from value to molecule, other results behind:

GI50 (VCaP cells; Homo sapiens)	GI50 (VCaP cells)	SMILES	GI50 [1]	GI50 [2]
	< 500 nM	CCS(=O)(=O)c1ccc(OCC(OCCOC2CCN(c3ncc(C(=O)N[C@H]4C(C)(C)[C@H](Oc5ccc(C#N)c(Cl)c5)C4(C)C)cn3)CC2)C2CC2)c(-c2cn(C)c(=O)c3[nH]ccc23)c1 (stereo partly drawn) [Compound I-177]	< 500 nM	< 500 nM
500 to 1500 nM		Cn1cc(-c2cc(NS(=O)(=O)C(F)(F)F)ccc2Oc2cccc(OCCOC3CCN(c4ncc(C(=O)N[C@H]5C(C)(C)[C@H](Oc6ccc(C#N)c(Cl)c6)C5(C)C)cn4)CC3)c2F)c2cc[nH]c2c1=O [Compound I-163, N-[3-(3-chloro-4-cyano-phenoxy)-2,2,4,4-tetramethyl-cyclobutyl]-2-[4-[2-[2-fluoro-3-[2-(6-methyl-7-oxo-1H-pyrrolo[2,3-c]pyridin-4-yl)-4-(trifluoromethylsulfonylamino)phenoxy]phenoxy]ethoxy]-1-piperidyl]pyrimidine-5-carboxamide]	> 3000 nM	< 500 nM
< 500 nM		CCS(=O)(=O)Nc1ccc(Oc2cccc(NCCN(C)C3CCN(c4ncc(C(=O)N[C@H]5C(C)(C)[C@H](Oc6ccc(C#N)c(Cl)c6)C5(C)C)cn4)CC3)c2)c(-c2cn(C)c(=O)c3[nH]ccc23)c1 [Compound I-173]	> 3000 nM	500 to 1500 nM
< 500 nM		CCS(=O)(=O)Nc1ccc(Oc2cccc(CCCCCOC3CCN(c4ncc(C(=O)N[C@H]5C(C)(C)[C@H](Oc6ccc(C#N)c(Cl)c6)C5(C)C)cn4)CC3)c2)c(-c2cn(C)c(=O)c3[nH]ccc23)c1 [Compound I-22]	< 500 nM	< 500 nM
< 500 nM		CCS(=O)(=O)Cc1ccc(Oc2cccc(OCCOC3CCN(c4ccc(C(=O)N[C@H]5C(C)(C)[C@H](Oc6ccc(C#N)c(Cl)c6)C5(C)C)nn4)CC3)c2F)c(-c2cn(C)c(=O)c3[nH]ccc23)c1 [Compound I-167]	> 3000 nM	< 500 nM
< 500 nM		CCS(=O)(=O)Nc1ccc(Oc2cccc(CCCOC3CCN(c4ncc(C(=O)N[C@H]5C(C)(C)[C@H](Oc6ccc(C#N)c(Cl)c6)C5(C)C)cn4)CC3)c2F)c(-c2cn(C)c(=O)c3[nH]ccc23)c1 [Compound I-154]	< 500 nM	< 500 nM
< 500 nM		Cn1cc(-c2cc(CS(C)(=O)=O)ccc2Oc2cccc(OCCOC3CCN(c4ncc(C(=O)N[C@H]5C(C)(C)[C@H](Oc6ccc(C#N)c(Cl)c6)C5(C)C)cn4)CC3)c2)c2cc[nH]c2c1=O [Compound I-53, N-((1r, 3r)-3-(3-chloro-4-cyanophenoxy)-2,2,4,4-tetramethylcyclobutyl)-2-(4-(2-(3-(2-(6-methyl-7-oxo-6,7-dihydro-1H-pyrrolo[2,3-c]pyridin-4-yl)-4-((methylsulfonyl)methyl)phenoxy)phenoxy)ethoxy)piperidin-1-yl)pyrimidine-5-carboxamide]	< 500 nM	< 500 nM
